Measured values published in patent publication US20090143484A1, “USE OF GARLIC OIL TO INCREASE BIOAVAILABILITY OF COENZYME Q-10” (priority 2007, published 2009).

Experiments:
Human LDL = assay: Prevention of LDL oxidation (CuSO4-initiated conjugated diene formation at 234 nm); type: biochemical; conditions: LDL 0.1 mg/ml
Procedure: Human LDL were obtained by ultracentrifugation from fresh human blood, followed by dialysis against in 10 mM PBS (pH 7.4) at 4° C. in the dark for 24 h. LDL (0.1 mg/ml) were mixed with different amounts of active constituents. Reaction was initiated by adding a solution of CuSO4 (10 μM); samples were then incubated at 37° C. for 22 h. The formation of conjugated diene was measured at 234 nm using a Hewlett-Packard spectrophotometer (Agilent, Palo Alto).
Data evaluation was performed by comparison of the slope of increase in diene-formation. The steepest slope (i.e. without addition of anti-oxidants) was set to 100%. Results are given as relative %.
The lag-time until start of diene formation was estimated from the kinetic curves obtained. Results are given in minutes.

[1] = system: Caco-2 HTB-37 (human colon adenocarinoma); assay: Absorption testing using Caco-2 cells (cellular uptake of CoQ10, HPLC); type: in vitro ADME; conditions: 37° C., up to 2 h
Procedure: Caco-2 HTB-37 (human colon adenocarinoma), obtained from ATCC, were cultured in DMEM (Dulbecco/Vogt modified Eagle's minimal essential medium) containing 20% FCS (Fetal Calf Serum), 1% nonessential amino acids, 0.83 mM L-glutamine and 1% penicillin-streptomycin at 37° C. in a humified atmosphere of CO2. Cells were grown in 75 cm^2 culture-flasks (T75) and their medium was replaced every third day. As soon as confluency was reached—once a week—they were split using trypsin.
After discarding the old medium, the monolayer was washed with 10 mL PBS. Subsequently, 3 mL trypsin was added in order to detach the cells. […]
The remaining 9 mL cell-suspension was used for experiments and was therefore transferred into a 15 mL falcon. After the cells had been counted by using a Neubauer-chamber, cells were seeded into 6 Well Thin Certs and 6 Wells at a density of 3×10^5 and 6.76×10^5, respectively. […]
The optimum amount of the emulsifier lecithin had to be determined individually for each sample. […]
A reversed-phase column (Spherimage-80) with 5 μm pore size and […] was used. […] Coenzyme Q10 (oxidized and reduced) were monitored at 275 nm.
CoQ10 was determined in the media (outside the cells) and in the cells. Both, oxidized and reduced CoQ10, were quantified. […]

COC1=C(OC)C(=O)C(C/C=C(\C)CC/C=C(\C)CC/C=C(\C)CC/C=C(\C)CC/C=C(\C)CC/C=C(\C)CC/C=C(\C)CC/C=C(\C)CC/C=C(\C)CCC=C(C)C)=C(C)C1=O [CoQ10]
Inhibition (Human LDL; 0.1 mg/mL of CoQ10): 13%
Residual activity (Human LDL; 0.1 mg/mL of CoQ10): 87%
Inhibition (Human LDL; 1 mg/mL of CoQ10): 43%
Residual activity (Human LDL; 1 mg/mL of CoQ10): 57%
Inhibition (Human LDL; 1 mg/mL of CoQ10, listed as CoQ-10): about 43%
Inhibition (Human LDL; 10 mg/mL of CoQ10): 68%
Residual activity (Human LDL; 10 mg/mL of CoQ10): 32%
Lag Time (Human LDL; lag time to start of LDL-oxidation, Co Q10 1 mg/mL): 146 min
content of CoQ10 in the media during the incubation conditions [1]: stable
